The results in this text go back to PMC6600292, “Potent Anti-Ovarian Cancer with Inhibitor Activities on Both Topoisomerase II and ^V600EBRAF of Synthesized Substituted Estrone Candidates” (Molecules, 2019).

For orientation: IC50 means the concentration at which inhibition is half-maximal. A word on the melting point: it is the temperature of the solid-liquid transition.

Where two headings read alike, the source gives them in different places.

One data set is described as follows: in vitro. It is filed as cell-based. How it is done: (§1) The cytotoxic activities of the synthesized derivatives against ovarian cancer cell lines (SKOV-3) were evaluated using standard MTT assay. SKOV-3 cells cultivated on DMEM medium supplemented with 10% FBS, […], 1% antibiotic/antimycotic solution and 3.6 g/L NaHCO3 were used. Cells were incubated under standard laboratory conditions. Before testing compounds, cells were trypsinized, centrifuged and prepared as per our developed protocol. MTT assay relies on the enzymatic conversion of the MTT substrate into purple formazan by living cells mitochondrial enzymes. Shortly, 96 well plates were seeded (10,000 cells/100 µL/well), then incubated for 24 h at standard conditions. Afterwards, cells were exposed to different concentrations from prepared compounds and incubated for another 24 h. Thereafter, MTT (10 µL, 5 mg/mL, PBS) were added to each well, and plates were incubated for 4 h. Supernatants were then replaced discarded with 200 µL of DMSO to dissolve the precipitated formazan crystals. Formazan absorbance, proportional to living cell number, was read at 550 nm using a microplate reader. Viability percentages were calculated and the corresponding IC50 values were obtained from the linear regression of the calibration curve. For comparison, doxorubicin (DOX) and resveratrol (RES) were used as positive controls. Furthermore, the effect of the newly synthesized derivatives was tested against normal fibroblast cell line to assess their toxicities.

A further data set deals with SKOV-3 cells. Nature of the data set: MTT cytotoxicity assay against SKOV-3 ovarian cancer cells. It is filed as cell-based. The settings on record: Homo sapiens, read-out: IC50, cytotoxicity against SKOV-3. How it is done: as §1
Background: Tetrazolium dyes change colour on reduction, which living cells bring about.

The next data set has as its target topoisomerase II. As to the kind of experiment: Topoisomerase II relaxation assay. It is filed as biochemical. The settings on record: topoisomerase II purified from P388 cells, relaxation of pBR-322 DNA; read-out: IC50, topoisomerase II inhibition. The protocol: The inhibitory effects of the synthesized compounds against topoisomerase II were investigated using relaxation assay according to Goyeneche, et al.. Topoisomerase II was purified from P388 cells, where enzyme unit corresponds to the activity required complete relaxation of […] of supercoiled pBR-322 DNA at 30 °C for 1 h. The assay was performed as per protocol and samples were subjected to electrophoresis (0.7% agarose gels, TBE buffer. Ethidium bromide-stained DNA was examined under UV light.

In data set [1] the target is T1, V600EBRAF (mutant BRAF kinase) (Homo sapiens, UniProt P15056, V600E).
T1 construct: BRAF wild-type and V600E mutant kinase domains were expressed and purified; made in house; host or cells: Sf9 insect cells, baculovirus
As to the kind of experiment: In vitro ELISA-based kinase assay, V600EBRAF. The settings on record: GST-MEK-His substrate. The data set is classed as biochemical. A general note: In an ELISA, binding on a coated surface is turned into a signal by an enzyme label.
Description: BRAF wild-type and V600E mutant kinase domains were expressed and purified according to Nakamura et al. [34]. Shortly, Sf 9 cells infected with BRAF kinase domain containing baculovirus were resuspended, sonicated, and then cleared using ultracentrifugation. Afterwards, the cleared lysate with mixed with equilibrated Talon resin, and the resin then washed with 10 column volumes of wash buffer and then eluted with buffer (25 mM Tris, pH 7.0, 250 mM NaCl, 160 mM imidazole, 10% glycerol). The eluant was then diluted, concentrated using Superdex 200 gel filtration column, purified as previously described and finally stored at –80 °C until use.
The previously prepared GST MEK-His protein was diluted in TTBS buffer (100 μL, 50 μg/mL), and then bound to 96-plate wells coated with glutathione (Pierce Biotechnology). Two DMSO-dilutions of each compound (1 µL) were added to 50 μL (50mM HEPES, pH7.0, 0.7 pmol of BRAF^V600E kinase). Tubes were incubated at ambient temperature for 1 h, then added to GST-MEK-His-plate wells. Afterwards, 50 μL of phosphorylation buffer were added to start kinase reaction (37 °C/30 min/shaking). Reaction was stopped, then substrate was added, and the signal was recorded. […]

The mark [2] stands for this setting: SK-OV-3, SKOV-3 cells, MTT, 24 h exposure.

T1 sequence (P15056 457-717 V600E limits assumed): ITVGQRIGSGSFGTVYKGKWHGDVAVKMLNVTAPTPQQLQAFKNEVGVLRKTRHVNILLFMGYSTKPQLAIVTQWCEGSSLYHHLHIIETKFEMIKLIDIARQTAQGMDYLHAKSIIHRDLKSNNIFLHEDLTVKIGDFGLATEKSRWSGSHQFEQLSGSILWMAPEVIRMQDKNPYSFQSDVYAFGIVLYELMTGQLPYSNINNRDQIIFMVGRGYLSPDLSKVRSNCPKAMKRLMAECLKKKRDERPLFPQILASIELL

In the case of `CNNC1C(COC)CC2C3CCc4cc(O)ccc4C3CCC21C` (centres unmarked) [Compound 3e], the melting point was in the range of 222 to 224 °C. In addition, the IC50 at 24 h in “in vitro” was 8.11 µM.
Taken in the same sequence, the figures for `CCOCC1CC2C3CCc4cc(O)ccc4C3CCC2(C)C1NN` (stereo not drawn) [Compound 3c, 16-(α-Ethoxy-methane)-17-hydrazino-estra-1(10),2,4-trien-[17,16-c]-3-ol] were 219 to 221 °C and 5.67 µM.
`CN1CC2CC3C4CCc5cc(O)ccc5C4CCC3(C)C2=N1` (centres unmarked) [Compound 4a, 1`-Methyl-1`H-estra-1(10),2,4-trien-[17,16-c]pyrazoline-3-ol]: the melting point was in the range of 117 to 119 °C. In addition, half-maximal inhibition in the data set “in vitro” (IC50 at 24 h) required 23.3 µM.
Taken in the same sequence, the figures for `COCC1CC2C3CCc4cc(O)ccc4C3CCC2(C)C1NNc1ccccc1` (stereo not drawn) [Compound 3i, 16-(α-Methoxy-methane)-17-[N-phenyl-hydrazino]-estra-1(10),2,4-trien-[17,16-c]-3-ol] were 312 to 314 °C and 15.1 µM.
Turning to `CNNC1C(C(C)OC)CC2C3CCc4cc(O)ccc4C3CCC21C` (stereo not drawn) [Compound 3f, 16-(α-Methoxy-ethane)-17-[N-methyl-hydrazino]-estra-1(10),2,4-trien-[17,16-c]-3-ol], the melting point was in the range of 310 to 312 °C. Also, the midpoint of inhibition in the data set “in vitro”, the IC50 at 24 h, lay at 9.2 µM.
Take `CCOC(C)C1CC2C3CCc4cc(O)ccc4C3CCC2(C)C1NNc1ccccc1` (stereo not drawn) [Compound 3l, 16-(α-Ethoxy-ethane)-17-[N-phenyl-hydrazino]-estra-1(10),2,4-trien-[17,16-c]-3-ol]: the melting point was in the range of 288 to 300 °C. In “in vitro”, inhibition was half-maximal at 20.2 µM (IC50 at 24 h).
For `CCOC(C)C1CC2C3CCc4cc(O)ccc4C3CCC2(C)C1NN` (stereo not drawn) [Compound 3d, 16-(α-Ethoxy-ethane)-17-hydrazino-estra-1(10),2,4-trien-[17,16-c]-3-ol], in that order: 223 to 225 °C and 7.44 µM.
Taken in the same sequence, the figures for `CCOCC1CC2C3CCc4cc(O)ccc4C3CCC2(C)C1NNC` (stereo not drawn) [Compound 3g, 16-(α-Ethoxy-methane)-17-[N-methyl-hydrazino]-estra-1(10),2,4-trien-[17,16-c]-3-ol] were 286 to 288 °C and 11.2 µM.
Take `CC1C2CC3C4CCc5cc(O)ccc5C4CCC3(C)C2=NN1C` (centres unmarked) [Compound 4b, 1`-Methyl-1`H-5`-methyl-estra-1(10),2,4-trien-[17,16-c]pyrazoline-3-ol]: the melting point fell in the range of 216 to 218 °C. The same compound gave an IC50 at 24 h in “in vitro” of 24.6 µM.
In the case of `COc1cccc2c1C(=O)c1c(O)c3c(c(O)c1C2=O)C[C@@](O)(C(=O)CO)C[C@@H]3O[C@H]1C[C@H](N)[C@H](O)[C@H](C)O1` [doxorubicin], the IC50 in the data set with SKOV-3 cells (setting [2]) was found to be 0.25 µM.
Same read-out and setting: then `Oc1ccc(/C=C/c2cc(O)cc(O)c2)cc1` [resveratrol], with 0.055 µM.
The compound `CC1C2CC3C4CCc5cc(O)ccc5C4CCC3(C)C2=NN1c1ccccc1` (centres unmarked) [Compound 4d, 1`-Phenyl-1`H-5`-methyl-estra-1(10),2,4-trien-[17,16-c]pyrazoline-3-ol] had a melting point of 214 to 216 °C. Further, the midpoint of inhibition in “in vitro”, the IC50 at 24 h, lay at 30.3 µM. For the same compound, the IC50 on topoisomerase II was 0.0436 ± 0.00098 µM.
With `CC12CCC3c4ccc(O)cc4CCC3C1CC1CN(c3ccccc3)N=C12` (centres unmarked) [Compound 4c, 1`-Phenyl-1`H-estra-1(10),2,4-trien-[17,16-c]pyrazoline-3-ol], the melting point was 255 to 257 °C. This compound also showed an IC50 at 24 h in the data set “in vitro” of 25.6 µM.
In the case of `COC(C)C1CC2C3CCc4cc(O)ccc4C3CCC2(C)C1NNc1ccccc1` (stereo not drawn) [Compound 3j, 16-(α-Methoxy-ethane)-17-[N-phenyl-hydrazino]-estra-1(10),2,4-trien-[17,16-c]-3-ol], the melting point is 229 to 231 °C. Inhibition in “in vitro” was half-maximal at 16.2 µM (IC50 at 24 h).
Taken in the same sequence, the figures for `CCOCC1CC2C3CCc4cc(O)ccc4C3CCC2(C)C1NNc1ccccc1` (stereo not drawn) [Compound 3k, 16-(α-Ethoxy-methane)-17-[N-phenyl-hydrazino]-estra-1(10),2,4-trien-[17,16-c]-3-ol] were 338 to 340 °C and 17.8 µM.
Taken in the same sequence, the figures for `COC(C)C1CC2C3CCc4cc(O)ccc4C3CCC2(C)C1NN` (stereo not drawn) [Compound 3b, 16-(α-Methoxy-ethane)-17-hydrazino-estra-1(10),2,4-trien[17,16-c]-3-ol] were 308 to 310 °C and 2.45 µM.
Consider `COCC1CC2C3CCc4cc(O)ccc4C3CCC2(C)C1NN` (stereo not drawn) [Compound 3a, 16-(α-Methoxy-methane)-17-hydrazino-estra-1(10),2,4-trien-[17,16-c]-3-ol], for which the melting point was 199 to 201 °C. Moreover, the IC50 with SKOV-3 cells (SK-OV-3, 24 h) came to 0.00423 ± 0.00012 µM. The IC50 at 24 h in “in vitro” turned out to be 1.2 µM. The IC50 at topoisomerase II was found to be 0.00345 ± 0.00013 µM. In data set [1], this compound had an IC50 of 0.041 ± 0.0016 µM.
In turn, `CCOC(C)C1CC2C3CCc4cc(O)ccc4C3CCC2(C)C1NNC` (stereo not drawn) [Compound 3h, 16-(α-Ethoxy-ethane)-17-[N-methyl-hydrazino]-estra-1(10),2,4-trien-[17,16-c]-3-ol] registered a melting point of 280 to 282 °C. The compound also had a half-inhibitory concentration (IC50) at 24 h in “in vitro” of 16.2 µM.
